Values of other authors in patent US10426724B2, “Antihistamine compositions, combinations, and use thereof” (APTAPHARMA INC., priority 2016, dated 2019).

Biological target: histamine H1-receptors (Homo sapiens, UniProt P35367)
Conditions: from time of administration to symptomatic relief; Annals of Allergy, Asthma, & Immunology (1997), 79

histamine H1-receptors, sequence (P35367 whole entry): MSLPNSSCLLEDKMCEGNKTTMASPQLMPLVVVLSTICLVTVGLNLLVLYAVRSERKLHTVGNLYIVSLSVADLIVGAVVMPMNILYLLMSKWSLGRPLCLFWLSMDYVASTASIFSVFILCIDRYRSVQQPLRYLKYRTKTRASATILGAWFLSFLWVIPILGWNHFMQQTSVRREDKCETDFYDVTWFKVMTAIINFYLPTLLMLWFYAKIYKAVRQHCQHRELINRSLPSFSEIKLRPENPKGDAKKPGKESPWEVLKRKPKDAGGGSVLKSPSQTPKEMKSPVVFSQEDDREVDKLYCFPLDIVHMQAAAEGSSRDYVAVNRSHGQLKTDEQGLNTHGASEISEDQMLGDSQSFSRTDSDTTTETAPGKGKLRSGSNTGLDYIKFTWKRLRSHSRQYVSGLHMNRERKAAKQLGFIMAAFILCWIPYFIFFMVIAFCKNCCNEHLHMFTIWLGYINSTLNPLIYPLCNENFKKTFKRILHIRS

lag time before onset of action: several hours
Compound: O=C(O)COCCN1CCN(C(c2ccccc2)c2ccc(Cl)cc2)CC1 (stereo not shown) [cetirizine]
